Structures can show the parent of a compound that is named as a salt. Where two headings read alike, the source gives them in different places.
Target: T1, recombinant human arginase 1 (Homo sapiens, UniProt P05089)
T1 sequence (P05089 1-322): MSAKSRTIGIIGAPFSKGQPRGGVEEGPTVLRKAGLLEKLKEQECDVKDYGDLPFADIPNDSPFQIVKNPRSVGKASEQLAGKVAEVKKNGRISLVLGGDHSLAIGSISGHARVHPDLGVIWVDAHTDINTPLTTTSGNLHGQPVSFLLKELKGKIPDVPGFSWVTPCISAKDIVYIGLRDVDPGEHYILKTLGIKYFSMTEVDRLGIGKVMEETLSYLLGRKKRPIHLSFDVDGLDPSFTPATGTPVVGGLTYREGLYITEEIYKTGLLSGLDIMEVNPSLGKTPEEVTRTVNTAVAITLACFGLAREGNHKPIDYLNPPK
Test: Arginase inhibitory activity test, enzymatic assay based on urea measurement (Arg 1);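 note: enzyme incubated with L-arginine substrate and compound at 37 °C for 120 min, urea product detected colorimetrically by absorbance at 450 nm, background from wells lacking enzyme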
Protocol: An enzymatic assay with recombinant human arginases 1 or 2 was used to measure inhibitory activity of the compounds. The assay is based on urea measurement, which is a product of L-arginine enzymatic degradation.
Briefly, arginase and the substrate solution containing L-arginine were incubated in the absence or presence of varying concentrations of compounds at 37° C. for 120 min. For the background correction, only the substrate solution was added without arginase. The urea detection reagent from QuantiChrome™ Urea assay kit (BioAssay Systems, CA) was added to develop the color product. After 60 min at room temperature, the absorbance was measured at 450 nm with CLARIOstar (BMG LABTECH). Urea was used as the standard.

Row | Compound | IC50 | IC50 (read-out: Arg 1 enzymatic potency, recombinant human arginase 1, 37° C. for 120 min, urea detection)
1 | N[C@@]1(C(=O)O)CN(S(=O)(=O)N(CC2CC2)C2CCNCC2)C[C@@H]1CCCB(O)O [Example 74, (3R,4S)-3-amino-4-(3-boronopropyl)-1-(N-(cyclopropylmethyl)-N-(piperidin-4-yl)sulfamoyl)pyrrolidine-3-carboxylic acid, 2,2,2-trifluoroacetic acid salt (1:2)] | < 0.1 µM | 
2 | (rac)trans-3-amino-1-(N-((S)-2-aminopropyl)sulfamoyl)-4-(3-boronopropyl)pyrrolidine-3-carboxylic acid (diastereomers), 2,2,2-trifluoroacetic acid salt (1:2) [Example 18] |  | 0.1 to 1 µM
3 | NCCNc1c(N2C[C@H](CCCB(O)O)[C@](N)(C(=O)O)C2)c(=O)c1=O [Example 28, (3R,4S)-3-amino-1-(2-((2-aminoethyl)amino)-3,4-dioxocyclobut-1-en-1-yl)-4-(3-boronopropyl)pyrrolidine-3-carboxylic acid, 2,2,2-trifluoroacetic acid salt (1:2)] | < 0.1 µM | 
4 | N[C@@]1(C(=O)O)CN(S(=O)(=O)N(CC(F)(F)F)C2CNC2)C[C@@H]1CCCB(O)O [Example 66, (3R,4S)-3-amino-1-(N-(azetidin-3-yl)-N-(2,2,2-trifluoroethyl)sulfamoyl)-4-(3-boronopropyl)pyrrolidine-3-carboxylic acid, 2,2,2-trifluoroacetic acid salt (1:2)] | < 0.1 µM | 
5 | NC1CC1N(CC1CC1)S(=O)(=O)N1C[C@H](CCCB(O)O)[C@](N)(C(=O)O)C1 (stereo partly drawn) [Example 69, (3R,4S)-3-amino-1-(trans-N-(2-aminocyclopropyl)-N-(cyclopropylmethyl)sulfamoyl)-4-(3-boronopropyl)pyrrolidine-3-carboxylic acid, 2,2,2-trifluoroacetic acid salt (1:2)] | < 0.1 µM | 
6 | C[C@H](CN)NS(=O)(=O)N1C[C@H](CCCB(O)O)[C@](N)(C(=O)O)C1 (racemic) [Example 16, (rac)trans-3-amino-1-(N-((R)-1-aminopropan-2-yl)sulfamoyl)-4-(3-boronopropyl)pyrrolidine-3-carboxylic acid (diastereomers), 2,2,2-trifluoroacetic acid salt (1:2)] | < 0.1 µM | 
7 | N=C(NC(=O)CN)N1C[C@H](CCCB(O)O)[C@](N)(C(=O)O)C1 (racemic) [Example 38, rac-(trans)-3-amino-4-(3-boronopropyl)-1-(N-glycylcarbamimidoyl)pyrrolidine-3-carboxylic acid, 2,2,2-trifluoroacetic acid salt (1:2)] | 0.1 to 1 µM | 
8 | N[C@H]1CC1NS(=O)(=O)N1C[C@H](CCCB(O)O)[C@](N)(C(=O)O)C1 (relative stereo) [Example 40, (3R,4S)-3-amino-1-(N-((cis)-2-aminocyclopropyl)sulfamoyl)-4-(3-boronopropyl)pyrrolidine-3-carboxylic acid, 2,2,2-trifluoroacetic acid salt (1:2)] | 0.1 to 1 µM | 
9 | CC(NS(=O)(=O)N1C[C@H](CCCB(O)O)[C@](N)(C(=O)O)C1)C1(N)CC1 (stereo partly drawn) [Example 58, (3R,4S)-3-amino-1-(N-(1-(1-aminocyclopropyl)ethyl)sulfamoyl)-4-(3-boronopropyl)pyrrolidine-3-carboxylic acid, 2,2,2-trifluoroacetic acid salt (1:2)] | 0.1 to 1 µM | 
10 | NC1CC(NS(=O)(=O)N2C[C@H](CCCB(O)O)[C@](N)(C(=O)O)C2)C1 (mixture of isomers) [Example 24, (rac)-trans-3-amino-1-(N-((rac)trans-3-aminocyclobutyl)sulfamoyl)-4-(3-boronopropyl)pyrrolidine-3-carboxylic acid compound with 2,2,2-trifluoroacetic acid (1:2)] | < 0.1 µM | 
11 | N[C@@H]1C[C@H]1NS(=O)(=O)N1C[C@H](CCCB(O)O)[C@](N)(C(=O)O)C1 (racemic) [Example 15, (3R,4S)-3-amino-1-(N-((rac)trans-2-aminocyclopropyl)sulfamoyl)-4-(3-boronopropyl)pyrrolidine-3-carboxylic acid (diastereomers), (1:2) 2,2,2-trifluoroacetic acid salt] | < 0.1 µM | 
12 | N=C(N)NCCNS(=O)(=O)N1C[C@H](CCCB(O)O)[C@](N)(C(=O)O)C1 (racemic) [Example 54, (racemic)-trans-3-amino-4-(3-boronopropyl)-1-(N-(2-guanidinoethyl)sulfamoyl)pyrrolidine-3-carboxylic acid, 2,2,2-trifluoroacetic acid salt (1:2)] | 0.1 to 1 µM | 
13 | COC(=O)[C@@H](N)CNS(=O)(=O)N1C[C@H](CCCB(O)O)[C@](N)(C(=O)O)C1 (racemic) [Example 55] | < 0.1 µM | 
14 | N[C@@]1(C(=O)O)CN(S(=O)(=O)N(CC2CC2)[C@H]2CCCNC2)C[C@@H]1CCCB(O)O [Example 72, (3R,4S)-3-amino-4-(3-boronopropyl)-1-(N-(cyclopropylmethyl)-N-((S)-piperidin-3-yl)sulfamoyl)pyrrolidine-3-carboxylic acid, 2,2,2-trifluoroacetic acid salt (1:2)] | < 0.1 µM | 
15 | CCN(C1CNC1)S(=O)(=O)N1C[C@H](CCCB(O)O)[C@](N)(C(=O)O)C1 (racemic) [Example 52, (racemic)-trans-3-amino-1-(N-(azetidin-3-yl)-N-ethylsulfamoyl)-4-(3-boronopropyl)pyrrolidine-3-carboxylic acid 2,2,2-trifluoroacetic acid salt (1:2)] | < 0.1 µM | 
16 | N[C@@]1(C(=O)O)CN(S(=O)(=O)N(CC2CC2)[C@@H]2CCCNC2)C[C@@H]1CCCB(O)O [Example 73, (3R,4S)-3-amino-4-(3-boronopropyl)-1-(N-(cyclopropylmethyl)-N-((R)-piperidin-3-yl)sulfamoyl)pyrrolidine-3-carboxylic acid, 2,2,2-trifluoroacetic acid salt (1:2)] | < 0.1 µM | 
17 | N=C(N)NC(=O)N1C[C@H](CCCB(O)O)[C@](N)(C(=O)O)C1 (racemic) [Example 51, (racemic)-trans-3-amino-4-(3-boronopropyl)-1-(carbamimidoylcarbamoyl)pyrrolidine-3-carboxylic acid, 2,2,2-trifluoroacetic acid salt (1:2)] | 0.1 to 1 µM | 
18 | NC1COCC1NS(=O)(=O)N1CC(CCCB(O)O)C(N)(C(=O)O)C1 (racemic) [Example 41, (rac)-trans-3-amino-1-(N-((trans)-4-aminotetrahydrofuran-3-yl)sulfamoyl)-4-(3-boronopropyl)pyrrolidine-3-carboxylic acid, 2,2,2-trifluoroacetic acid salt (1:2)] | 0.1 to 1 µM | 
19 | N[C@@]1(C(=O)O)CN(S(=O)(=O)NCCO)C[C@@H]1CCCB(O)O (racemic) [Example 10, (rac)trans-3-amino-4-(3-boronopropyl)-1-(N-(2-hydroxyethyl)sulfamoyl)pyrrolidine-3-carboxylic acid (1:1), 2,2,2-trifluoroacetic acid salt] | 0.1 to 1 µM | 
20 | NCC(=O)NS(=O)(=O)N1C[C@H](CCCB(O)O)[C@](N)(C(=O)O)C1 (racemic) [Example 8, (rac)trans-3-amino-4-(3-boronopropyl)-1-(N-glycylsulfamoyl)pyrrolidine-3-carboxylic acid, (1:2) 2,2,2-trifluoroacetic acid salt] | 0.1 to 1 µM | 
21 | CN(CCN)S(=O)(=O)N1C[C@H](CCCB(O)O)[C@](N)(C(=O)O)C1 [Example 27, (3R,4S)-3-amino-1-(N-(2-aminoethyl)-N-methylsulfamoyl)-4-(3-boronopropyl)pyrrolidine-3-carboxylic acid, 2,2,2-trifluoroacetic acid salt (1:2)] | < 0.1 µM | 
22 | Nc1ccccc1NS(=O)(=O)N1C[C@H](CCCB(O)O)[C@](N)(C(=O)O)C1 (racemic) [Example 13, (rac)trans-3-amino-1-(N-(2-aminophenyl)sulfamoyl)-4-(3-boronopropyl)pyrrolidine-3-carboxylic acid, (1:2) 2,2,2-trifluoroacetic acid salt] | 0.1 to 1 µM | 
23 | N[C@@]1(C(=O)O)CN(S(=O)(=O)N(CC2CC2)C2CNC2)C[C@@H]1CCCB(O)O [Example 63, (3R,4S)-3-amino-1-(N-(azetidin-3-yl)-N-(cyclopropylmethyl)sulfamoyl)-4-(3-boronopropyl)pyrrolidine-3-carboxylic acid, 2,2,2-trifluoroacetic acid salt (1:2)] | < 0.1 µM | 
24 | NC(=O)NS(=O)(=O)N1C[C@H](CCCB(O)O)[C@](N)(C(=O)O)C1 (racemic) [Example 53, (racemic)-trans-3-amino-4-(3-boronopropyl)-1-(N-carbamoylsulfamoyl)pyrrolidine-3-carboxylic acid 2,2,2-trifluoroacetic acid salt (1:2)] | 1 to 10 µM | 
25 | N[C@@]1(C(=O)O)CN(S(=O)(=O)N(c2ccccc2)C2CNC2)C[C@@H]1CCCB(O)O [Example 64, (3R,4S)-3-amino-1-(N-(azetidin-3-yl)-N-phenylsulfamoyl)-4-(3-boronopropyl)pyrrolidine-3-carboxylic acid, 2,2,2-trifluoroacetic acid salt (1:2)] | < 0.1 µM | 
26 | NCCCNS(=O)(=O)N1C[C@H](CCCB(O)O)[C@](N)(C(=O)O)C1 (racemic) [Example 21, (rac)-trans-3-amino-1-(N-(3-aminopropyl)sulfamoyl)-4-(3-boronopropyl)pyrrolidine-3-carboxylic acid (diastereomers), 2,2,2-trifluoroacetic acid salt (1:2)] | 0.1 to 1 µM | 
27 | N[C@@H](CNS(=O)(=O)N1C[C@H](CCCB(O)O)[C@](N)(C(=O)O)C1)C(=O)O (racemic) [Example 56] | 0.1 to 1 µM | 
28 | CNCCNS(=O)(=O)N1C[C@H](CCCB(O)O)[C@](N)(C(=O)O)C1 (racemic) [Example 46, (racemic)-trans-3-amino-4-(3-boronopropyl)-1-(N-(2-(methylamino)ethyl)sulfamoyl)pyrrolidine-3-carboxylic acid, 2,2,2-trifluoroacetic acid salt (1:2)] | 0.1 to 1 µM | 

From patent US20220251116A1, “ALKYLBORONIC ACIDS AS ARGINASE INHIBITORS” (Guangdong Newopp Biopharmaceuticals Co., Ltd., priority 2019, published 2022)
